Results on three molecules are retold here after patent publication US20170327789A1, “Modulation of Dopamine Receptor to Promote Neural Cell Differentiation” (The Hospital for Sick Children, priority 2014, published 2017).

In one experiment the test system is human fetal NSC (hf5205). Put plainly: Immunocytochemistry for Vglut1 after 3 weeks differentiation. It counts as cell-based. Conditions: 2-step growth withdrawal. Here is the method: Antibodies included: Beta-III tubulin (1:100 MAB1637), GFAP (1:1000, DAKO), Vglut1 (1:1000, Synaptic system), GABA (1:1000, Sigma). Appropriate fluorescent-conjugated secondary antibodies were used at 1:500 for 1 h at room temperature. Coverslips were mounted with fluorescent mounting medium (DAKO) containing DAPI (1:1000) and cells were imaged using Leica microscope. Hit validation for differentation. All retests for differentiation were done by a two step growth withdrawal method (as described in Sun et al. Mol. Cell. Neurosci. 38(2008) 245-258) with and without the test compound for 8 days. […] Immunocytochemistry was performed for a series of antibodies marking different classes of neurons based on their neurotransmitters including glutamatergic, dopaminergic, cholinergic and serotonergic. […] Vglut1 is a vesicular glutamate transporter required for transport of glutamate into synaptic vesicles of glutamatergic neurons.

The subject of experiment [1] is human fetal NSC. Put plainly: RT-qPCR gene expression of neuronal lineage and cortical layer markers in differentiated cells. It counts as cell-based. How it is done:
Hit validation for differentation. All retests for differentiation were done by a two step growth withdrawal method (as described in Sun et al. Mol. Cell. Neurosci. 38(2008) 245-258) with and without the test compound for 8 days. Test compounds included L-741,742 (3 μM), PNU96415E (15 μM), Ifenprodil tartrate (1.5 μM), McN A-343 (4 μM), and (−) —N-Phenylcarbamoyleseroline (6 μM). For mature neuronal marker analysis, human fetal NSC were differentiated for 3 weeks using L-741,742 (2-4 μM varying at different stages) in the two step growth withdrawal method.
The differentiated cells were further tested for gene expression of different neuronal lineage markers by RT-qPCR. A series of primers were designed for markers representing both neurotransmitters and domain specific regions as shown in Table 1.
L-741,742-differentiated neurons show cortical layer V marker. L-741,742-differentiated cells show increased expression of VGLUT1 and NEUROG2. NEUROG2 expression is required for promoting excitatory neurons in the dorsal cortical region during development. To test if L-741,742 promotes or specifies specific cortical layer neurons, a series of primers were designed to mark all layers of cortex; Reelin (layer 1), Tbr1 (layer V1), Ctip2 (Layer V), Satb2 (Layer II-III) and Foxg1 (telenchepalic marker) (Table 1). The expression of these markers in L-741,742-differentiated cells was determined by RT-qPCR. […] Thus, L-741,742-differentiated neurons express cortical layer V marker CTIP2 and telencephalic marker FOXG1, with VGLUT1 expression, indicating differentiation into cortical layer neurons.
(Real-time PCR tracks product formation cycle by cycle.)

The next experiment deals with Hf5205 cells. Put plainly: Single cell qPCR (Fluidigm analysis) of differentiated cells. The format is cell-based, human. Conditions: 3.5 μM, three weeks. How it is done:
Single Cell qPCR (Fluidigm Analysis). Differentiated hfNS (hf5205) at week 3 was accutased and cells were resuspended in NS medium containing 1 μg per ml of propidium iodide and filtered through a 40 μm nylon cell strainer followed by live single cell sorting into a 96 well qPCR plate on a BD cell sorter. Cells were sorted into 10 μl of preamplification mix containing 40 nM of all primers for the 48 genes, and the following components of CellsDirect One-Step qRT-PCR kit (Invitrogen) as directed in protocol: 2× reaction mix, SuperScript III RT/platinum Taq mix. After sorting, samples were reverse transcribed and preamplified for 18 cycles. Preamplified samples were diluted (2×) with TE buffer and stored at −20° C. Sample and assay primer preparation for Fluidigm Dynamic arrays was done according to the manufacturer's recommendation. Samples were mixed with 2× assay loading reagent (Fluidigm Corp), 20× EvaGreen and TaqMan gene expression master mix. The Fluidigm Dynamic arrays were primed and loaded on the IFC controller and qPCR experiments were run on a Biomark system for genetic analysis.
Fluidigm Analysis. Hf5205 cells were differentiated in the two-step growth withdrawal method, with and without L-741,742 (3.5 μM) for three weeks. The differentiated cells were harvested and filtered through a 40 uM nylon filter and live sort single cell (based on PI staining) into a 96 well qRT-PCR plate containing pre-amplification mix of 48 primers, reverse transcribed and amplified for 48 genes (as described in Pasca et al. Nature Medicine (2011) November 27; 17(12) 1657-62) in one step using a kit from Invitrogen. Samples and primer pairs were prepared for Fluidigm as per protocol. Cells were identified based on presence of RPS18 and GAPDH, Data was analyzed based on population of cells expressing particular genes using different CT value cut off.
Characterization of L-741,742-differentiated cells by Fluidigm analysis. To further characterize the different population of neurons in L-741,742 differentiated culture, a single cell Fluidigm array was employed that can perform multiple qRT-PCR (48 genes or 96 genes) at a single cell level as shown in FIG. 6. Forty eight (48) gene primers marking various cell populations were used including, early progenitor marking dorsal, ventral or midbrain, differentiated neuronal markers based on neurotransmitters GABA or glutamatergic and markers specifying different cortical layers. Primer sequences were obtained from Pasca et al. Nature Medicine (2011) November 27; 17(12) 1657-62).

For experiment [2], the system named is human fetal NSC. Put plainly: GABA staining of differentiated cells, week 1-3. It counts as cell-based. Conditions: 2 week differentiated cells. How it is done: Immunocytochemistry. hfNS cells differentiated on coverslips were fixed with 4% paraformaldehyde and permeabilized with 0.3% Triton X100, block with 5% goat serum, and incubated with primary antibody overnight at 4° C. Antibodies included: Beta-III tubulin (1:100 MAB1637), GFAP (1:1000, DAKO), Vglut1 (1:1000, Synaptic system), GABA (1:1000, Sigma). Appropriate fluorescent-conjugated secondary antibodies were used at 1:500 for 1 h at room temperature. Coverslips were mounted with fluorescent mounting medium (DAKO) containing DAPI (1:1000) and cells were imaged using Leica microscope.
L-741,742-differentiated cells were also tested for GABA staining from week 1-3 and GABA positive cells were present in early in 1 week differentiated cells, showing up to 11% GABA positive neurons in 2 week differentiated cells (FIG. 5).

Take `Cl.Cl.Fc1ccc(N2CCN(CCC3OCCc4ccccc43)CC2)cc1` (stereo not shown) [PNU96415E]: in the experiment with human fetal NSC (hf5205), the “Vglut1-positive staining indicating differentiation into glutamatergic neurons” value is “Vglut1-positive staining”.

Turning to `Cc1c(C2CCN(CCc3ccccc3)CC2)noc1-c1ccc(Cl)cc1` [L-741,742], in the experiment on human fetal NSC [1] (at the concentration tested), the Reelin expression result was “not detectable” and the Tbr1 expression entry was “not detectable”. In addition, in the experiment on human fetal NSC [1] (compared to the control), the “increase in NEUROG2 expression” value was 11 fold and the “increase in VGLUT1 expression” value was 15-35 fold. The “increase in CTIP2 expression” value in the experiment on human fetal NSC [1] (cortical layer V marker) is reported as “approximately 23 fold”. In addition, in the experiment on human fetal NSC [1] (telencephalic marker), the “increase in FOXG1 expression” value is reported as around 27 fold. In addition, in the experiment on human fetal NSC (hf5205), the “Vglut1-positive staining indicating differentiation into glutamatergic neurons” value is “Vglut1-positive staining”. For the same molecule, in the experiment with Hf5205 cells, the “expression of CAMKII (marking glutamatergic neurons)” value is listed as “increase”, the “expression of EVT1 (marking lower cortical layer V)” value was “increase”, the “expression of MAP2 (marking neurons)” value is on record as “increase” and the “expression of VGLUT1 (marking glutamatergic neurons)” value is recorded as “increase”. Moreover, in the experiment with Hf5205 cells, the “expression of VGLUT2 (marking glutamatergic neurons)” value is recorded as “increase” and the “expression of VGLUT3 (marking glutamatergic neurons)” value is recorded as “increase”. Besides, in the experiment with human fetal NSC [2], the GABA positive neurons entry is given as “up to 11%”.

Turning to Ifenprodil tartrate, in the experiment with human fetal NSC (hf5205), the “Vglut1-positive staining indicating differentiation into glutamatergic neurons” value was “Vglut1-positive staining”.
